PubChem BioAssay AID652228 (The Scripps Research Institute Molecular Screening Center, 2013)
Active and inactive are the calls of the source.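 How the source made its calls: active means protein phosphatase 1 activity cut by at least 70% at 50 µM; inactive means inhibition below 70%.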

Molecular target: Serine/threonine-protein phosphatase PP1-alpha catalytic subunit (Homo sapiens) (UniProt P62136)
Assay: PP1 inhibition of phosphohistone dephosphorylation, late-stage follow-up, biochemical, radiolabel, single concentration, powder samples (AID 652228)
Conditions: purified PP1alpha, 33P-phosphohistone dephosphorylation, scintillation; at 50 µM; stronger effect = higher value

Chain of Serine/threonine-protein phosphatase PP1-alpha catalytic subunit (Homo sapiens) (P62136 whole entry, looked up): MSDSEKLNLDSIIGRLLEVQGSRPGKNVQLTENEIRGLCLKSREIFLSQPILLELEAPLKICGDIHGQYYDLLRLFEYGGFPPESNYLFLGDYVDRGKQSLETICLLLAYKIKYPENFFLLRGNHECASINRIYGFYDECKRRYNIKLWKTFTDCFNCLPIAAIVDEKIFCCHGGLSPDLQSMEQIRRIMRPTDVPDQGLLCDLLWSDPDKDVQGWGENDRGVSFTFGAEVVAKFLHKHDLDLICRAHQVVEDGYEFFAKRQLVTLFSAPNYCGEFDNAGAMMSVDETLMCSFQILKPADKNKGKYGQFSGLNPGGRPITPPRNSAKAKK

Question: Which inhibition does the source give for `CCOC(c1ccccn1)c1cc(Cl)c2cccnc2c1O` (stereo not given) here?
Answer: 15.6% (inactive)

Question: Which inhibition does the source give for `CC(C)(C)OC(=O)N1CCN(C(c2ccccn2)c2cc(Cl)c3cccnc3c2O)CC1` (stereo not given) here?
Answer: 49.1%

Question: With `Oc1c(CN2CCN(c3ccccc3)CC2)cc(Cl)c2cccnc12` as the compound, how does the inhibition read?
Answer: 18.5% (inactive)

Question: For `Oc1c(C(c2ccccn2)N2CCC(Cc3ccccc3)CC2)cc(Cl)c2cccnc12` (stereo not given), which inhibition is on record?
Answer: 57.4%

Question: How did the inhibition turn out when `Oc1c(CN2CCN(c3ccccn3)CC2)cc(Cl)c2cccnc12` was run?
Answer: 12.6% (inactive)

Question: How did the inhibition turn out when `CC1CCN(C(c2ccccn2)c2cc(Cl)c3cccnc3c2O)CC1` (stereo not given) was run?
Answer: 43.2%

Question: `CN1CCN(C(c2ccccn2)c2cc(Cl)c3cccnc3c2O)CC1` (stereo not given) was tested. Which inhibition did it give?
Answer: -38.1% (inactive)

Question: For `Oc1c(C(c2ccccn2)N2CCN(c3ccccc3F)CC2)cc(Cl)c2cccnc12` (stereo not given), which inhibition is on record?
Answer: 35.7%

Question: With `CN1CCN(C(c2ccccn2)c2cc(Cl)ccc2O)CC1` (stereo not given) as the compound, how does the inhibition read?
Answer: 2.44% (inactive)

Question: For `CCN1CCN(C(c2ccccn2)c2cc(Cl)c3cccnc3c2O)CC1` (stereo not given), which inhibition is on record?
Answer: -51.6% (inactive)

Question: `CN1CCN(C(c2cccnc2)c2cc(Cl)c3cccnc3c2O)CC1` (stereo not given) was tested. Which inhibition did it give?
Answer: 10% (inactive)

Question: For `CN1CCN(C(c2ccncc2)c2cc(Cl)c3cccnc3c2O)CC1` (stereo not given), which inhibition is on record?
Answer: 4.17% (inactive)

Question: How did the inhibition turn out when `Oc1c(C(c2ccccn2)N2CCNCC2)cc(Cl)c2cccnc12` (stereo not given) was run?
Answer: 59%

Question: For `CN1CCN(C(c2ccccc2)c2cc(Cl)c3cccnc3c2O)CC1` (stereo not given), which inhibition is on record?
Answer: 4.84% (inactive)

Question: `CN1CCN(C(c2ccccn2)c2cc(Cl)c3ccccc3c2O)CC1` (stereo not given) was tested. Which inhibition did it give?
Answer: 5.68% (inactive)
